Assay results reported in patent US20260263413A1 (priority 2019, published 2026).

Columns and labels:
[1] = background statement, ref. [31]; cited from earlier work
[2] = Pharmacokinetic (PK) data from intravenous (IV) administration of DHM, blood samples analysed by LC-MS/MS; assay type: in vivo, Sprague-Dawley rats; conditions: Sprague-Dawley, rat, 1 mg/kg
Description: The DUNHM was administered in an 0.9% saline solution. No sodium caprate (sodium decanoate, Na caprate) was administered.

[3] = in vivo; conditions: Sprague-Dawley, rat, 1.3 mg/kg
Description: A pharmacokinetic study can be carried out to evaluate animal pharmacokinetics.
A blood sample was collected from each rat at predetermined times and analyzed with LC-MS/MS. […] Error bars for each point in time based on the results for each of the rats in the set are shown. […] Bioavailability (Fabs) was calculated as
where AUCoral and Doral indicate the AUC and dosage for a given oral administration, and AUCIV and Div indicate the AUC and dosage for the intravenous (IV) administration set forth in Example 1, above.
Error bars for each point in time based on the results for each of the rats in the set are shown.

[4] = Pharmacokinetic (PK) data from oral administration of DHM in enteric capsules, with or without sodium caprate; assay type: in vivo, Sprague-Dawley rats; conditions: Sprague-Dawley, rat, blood; for Tmax / AUC / Cmax: po; for AUC: DHM AUC; for Cmax: DHM Cmax
[5] = 1.1 mg/kg, 73.1±1.1 mg/kg crystalline DHM, enteric capsules (Eudragit L100-55 coated), Na caprate:DHM 0:1, FIG. 3A
[6] = 70.6±2.7 mg/kg crystalline DHM, enteric capsules, sodium caprate approx. 141.2 mg/kg (2:1), FIG. 3D
[7] = 75.5±2.0 mg/kg crystalline DHM, enteric capsules, sodium caprate approx. 75.5 mg/kg (1:1), FIG. 3C
[8] = 92.6±3.0 mg/kg crystalline DHM, enteric capsules, sodium caprate approx. 23.2 mg/kg (1:4), FIG. 3B

AUC [2]: 11.6 ± 4.9 ng·h/mL
Cmax [2]: 12.5 ± 0.5 ng/mL
bioavailability ([3]; DHM Bioavailability (Fabs)): 34.1 ± 12.7%
AUC ([3]; po, DHM AUC): 314 ± 115 ng·h/mL
Cmax ([3]; po, DHM Cmax): 46.2 ± 4 ng/mL
Tmax ([3]; po, Tmax): 4.7 ± 1.8 h
bioavailability ([4]; 1.1 mg/kg): 19.5 ± 9.5%
Tmax [4, 5]: 5.4 ± 2.6 h
AUC [4, 5]: 167 ± 83.3 ng·h/mL
Cmax [4, 5]: 27.9 ± 1.5 ng/mL
Tmax [4, 6]: 4 h
Tmax [4, 7]: 4 h
Tmax [4, 8]: 6 h
AUC [4, 6]: 431 ± 101 ng·h/mL
AUC [4, 7]: 284 ± 20.1 ng·h/mL
AUC [4, 8]: 222 ± 44.3 ng·h/mL
Cmax [4, 6]: 70.2 ± 6.5 ng/mL
Cmax [4, 7]: 62.3 ± 4.3 ng/mL
Cmax [4, 8]: 52.7 ± 3.6 ng/mL
Structure (SMILES): O=C1c2c(O)cc(O)cc2O[C@H](c2cc(O)c(O)c(O)c2)[C@H]1O [DHM, dihydromyricetin]
oral bioavailability [1]: less than 5%
